In patent US20220389009A1, “SUBSTITUTED 1,6-NAPHTHYRIDINE INHIBITORS OF CDK5” (Goldfinch Bio, Inc., priority 2019, published 2022):

Key:
[1] = target: CDK5/p25 (Homo sapiens, UniProt Q00535); assay: CDK5 mobility shift assay (enzymatic activity of CDK5/p25); assay type: biochemical; conditions: for IC50: 0.154 nM CDK5/p25, FL peptide 29, 60 min at room temperature, read-out: CDK5 IC50; for CDK5/CDK2 specificity: fold more active against CDK5 than CDK2
Outline: (§1)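 Phosphorylation of 1.5 μM fluorescent peptide was read by microfluidic mobility shift and fitted to IC50 (4-parameter), normalized to no-compound and no-enzyme controls. CDK5/p25 ran at 0.154 nM with […] ATP for 60 min, using peptide 29. CDK2/CycA2 ran at 1.25 nM with 37 μM ATP for 120 min, using peptide 18. Both included a 30-min compound preincubation in pH 7.5 buffer.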

[2] = target: CDK2/CycA2 (Homo sapiens, UniProt P24941); assay: CDK2 mobility shift assay (enzymatic activity of CDK2/CycA2); assay type: biochemical; conditions: 1.25 nM CDK2/CycA2, 37 μM ATP, FL Peptide 18, 120 min at room temperature; read-out: CDK2 IC50
Outline: as §1

CDK5/p25, sequence (Q00535 whole entry): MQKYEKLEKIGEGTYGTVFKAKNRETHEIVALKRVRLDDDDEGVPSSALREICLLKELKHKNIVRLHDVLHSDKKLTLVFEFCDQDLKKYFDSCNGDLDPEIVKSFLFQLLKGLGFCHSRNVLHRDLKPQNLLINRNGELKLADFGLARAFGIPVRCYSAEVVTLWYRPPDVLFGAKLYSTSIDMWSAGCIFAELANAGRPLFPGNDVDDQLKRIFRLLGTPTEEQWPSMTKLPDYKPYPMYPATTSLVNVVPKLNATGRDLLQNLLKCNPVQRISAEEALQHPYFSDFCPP
CDK5/p25, sequence (Q15078 99-307 partner limits assumed): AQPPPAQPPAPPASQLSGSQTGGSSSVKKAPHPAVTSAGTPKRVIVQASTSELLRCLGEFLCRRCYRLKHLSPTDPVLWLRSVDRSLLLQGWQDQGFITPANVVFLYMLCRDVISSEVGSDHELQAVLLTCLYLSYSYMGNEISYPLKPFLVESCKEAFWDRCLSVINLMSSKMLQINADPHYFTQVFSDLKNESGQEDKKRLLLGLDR

| Compound | IC50 [1] [µM] | CDK5/CDK2 specificity [1] | IC50 [2] [µM] |
| --- | --- | --- | --- |
| CN1CCC(S(=O)(=O)c2ccc3cnc(Nc4ccccc4F)cc3n2)CC1 [Compound 299] | < 0.01 | ++ (greater than 10-fold and less than or equal to 100-fold more active against CDK5 than CDK2) | 0.1 to 1 |
| CN1CCC(S(=O)(=O)c2ccc3cnc(Nc4ccc(N5CCCC5)cc4)cc3n2)CC1 [Compound 301] | < 0.01 | +++ (greater than 100-fold more active against CDK5 than CDK2) | 0.1 to 1 |
| CN1CCC(S(=O)(=O)c2ccc3cnc(Nc4ccc(N5CCC(O)CC5)cc4)cc3n2)CC1 [Compound 304] | < 0.01 | ++ (greater than 10-fold and less than or equal to 100-fold more active against CDK5 than CDK2) | 0.1 to 1 |
| CN1CCC(S(=O)(=O)c2ccc3cnc(Nc4ccc(N5CCNC(=O)C5)cc4)cc3n2)CC1 [Compound 305] | < 0.01 | ++ (greater than 10-fold and less than or equal to 100-fold more active against CDK5 than CDK2) | 0.01 to 0.1 |
| CN1CCC(S(=O)(=O)c2ccc3cnc(Nc4ccc(N(C)C)cc4)cc3n2)CC1 [Compound 306] | < 0.01 | +++ (greater than 100-fold more active against CDK5 than CDK2) | 0.01 to 0.1 |
| CN1CCC(S(=O)(=O)c2ccc3cnc(Nc4ccc(N5CCOC5=O)cc4)cc3n2)CC1 [Compound 307] | < 0.01 | ++ (greater than 10-fold and less than or equal to 100-fold more active against CDK5 than CDK2) | 0.01 to 0.1 |
| CC1CCN(c2ccc(Nc3cc4nc(S(=O)(=O)C5CCN(C)CC5)ccc4cn3)cc2)CC1 [Compound 308] | < 0.01 | +++ (greater than 100-fold more active against CDK5 than CDK2) | 0.1 to 1 |
| CN1CCC(N(Cc2cn[nH]c2)c2ccc3cnc(Nc4ccc(-n5ccc(CO)n5)cc4F)cc3n2)CC1 [Compound 309, [1-[3-fluoro-4-([2-[(1-methylpiperidin-4-yl) (1H-pyrazol-4-ylmethyl)amino]-1,6-naphthyridin-7-yl]amino)phenyl]pyrazol-3-yl]methanol] | 0.01 to 0.1 | ++ (greater than 10-fold and less than or equal to 100-fold more active against CDK5 than CDK2) | > 1 |
| COc1ccc(-c2ccc(Nc3cc4nc(C(C)C5CCN(C)CC5)ccc4cn3)c(F)c2)cc1 (stereo not drawn) [Compound 310] | 0.01 to 0.1 | ++ (greater than 10-fold and less than or equal to 100-fold more active against CDK5 than CDK2) | > 1 |
| CN1CCC(C2(c3ccc4cnc(Nc5ccc(-n6ccc(CO)n6)cc5F)cc4n3)CC2)CC1 [Compound 312, [1-[3-fluoro-4-([2-[1-(1-methylpiperidin-4-yl)cyclopropyl]-1,6-naphthyridin-7-yl]amino)phenyl]pyrazol-3-yl]methanol] | 0.01 to 0.1 | ++ (greater than 10-fold and less than or equal to 100-fold more active against CDK5 than CDK2) | > 1 |
| CC(c1ccc2cnc(Nc3ccc(-c4cccnc4)cc3F)cc2n1)C1CCN(C)CC1 (stereo not drawn) [Compound 314] | 0.01 to 0.1 | ++ (greater than 10-fold and less than or equal to 100-fold more active against CDK5 than CDK2) | > 1 |
| OCc1ccn(-c2ccc(Nc3cc4nc(C5(C6CCNCC6)CC5)ccc4cn3)c(F)c2)n1 [Compound 316, [1-[3-fluoro-4-([2-[1-(piperidin-4-yl)cyclopropyl]-1,6-naphthyridin-7-yl]amino)phenyl]pyrazol-3-yl]methanol] | 0.01 to 0.1 | ++ (greater than 10-fold and less than or equal to 100-fold more active against CDK5 than CDK2) | > 1 |
| CN1CCC(S(=O)(=O)c2ccc3cnc(Nc4ccc(-n5ccc(C(N)=O)n5)cc4F)cc3n2)CC1 [Compound 317, 1-(3-fluoro-4-[[2-(1-methylpiperidin-4-ylsulfonyl)-1,6-naphthyridin-7-yl]amino]phenyl)pyrazole-3-carboxamide] | < 0.01 | +++ (greater than 100-fold more active against CDK5 than CDK2) | 0.1 to 1 |
| CC(c1ccc2cnc(Nc3ccc(-c4cccnc4)cc3F)cc2n1)C1CCN(C)CC1 (stereo not drawn) [Compound 319] | < 0.01 | ++ (greater than 10-fold and less than or equal to 100-fold more active against CDK5 than CDK2) | 0.1 to 1 |
| COc1ccc(-c2ccc(Nc3cc4nc(C(C)C5CCN(C)CC5)ccc4cn3)c(F)c2)cc1 (stereo not drawn) [Compound 322] | < 0.01 | +++ (greater than 100-fold more active against CDK5 than CDK2) | 0.1 to 1 |
| O=S(=O)(c1ccc2cnc(Nc3ccc(-c4cccnc4)cc3F)cc2n1)C1CCN(CC2COC2)CC1 [Compound 323] | < 0.01 | +++ (greater than 100-fold more active against CDK5 than CDK2) | 0.1 to 1 |
| CC(c1ccc2cnc(Nc3ccc(-n4ccc(C(=O)O)n4)cc3F)cc2n1)C1CCN(C)CC1 (stereo not drawn) [Compound 324] | 0.01 to 0.1 | +++ (greater than 100-fold more active against CDK5 than CDK2) | > 1 |

| Compound | IC50 [1] [µM] | CDK5/CDK2 specificity [1] | IC50 [2] [µM] |
| --- | --- | --- | --- |
| NC(=O)c1cccc(-c2ccc(Nc3cc4nc(S(=O)(=O)C5CCN(CC6COC6)CC5)ccc4cn3)c(F)c2)c1 [Compound 326] | < 0.01 | +++ (greater than 100-fold more active against CDK5 than CDK2) | 0.1 to 1 |
| CN1CCC(C(C)(O)c2ccc3cnc(Nc4ccc(-c5cccnc5)cc4F)cc3n2)CC1 (stereo not drawn) [Compound 327] | 0.1 to 1 | ++ (greater than 10-fold and less than or equal to 100-fold more active against CDK5 than CDK2) | > 1 |
| COc1cc(-c2ccc(Nc3cc4nc(S(=O)(=O)C5CCN(CC6COC6)CC5)ccc4cn3)c(F)c2)ccn1 [Compound 328] | < 0.01 | +++ (greater than 100-fold more active against CDK5 than CDK2) | > 1 |
| CN1CCC(C(C)(O)c2ccc3cnc(Nc4ccc(-c5cccnc5)cc4F)cc3n2)CC1 (stereo not drawn) [Compound 329] | < 0.01 | ++ (greater than 10-fold and less than or equal to 100-fold more active against CDK5 than CDK2) | 0.01 to 0.1 |
| COc1cc(-c2ccc(Nc3cc4nc(C(C)(O)C5CCN(C)CC5)ccc4cn3)c(F)c2)ccn1 (stereo not drawn) [Compound 330] | > 1 | ++ (greater than 10-fold and less than or equal to 100-fold more active against CDK5 than CDK2) | > 1 |
| COc1ccc(-c2ccc(Nc3cc4nc(S(=O)(=O)C5CCN(CC6COC6)CC5)ccc4cn3)c(F)c2)cc1 [Compound 331] | < 0.01 | ++ (greater than 10-fold and less than or equal to 100-fold more active against CDK5 than CDK2) | 0.1 to 1 |
| O=S(=O)(c1ccc2cnc(Nc3ccc(-n4cccn4)cc3F)cc2n1)C1CCN(CC2COC2)CC1 [Compound 332] | < 0.01 | +++ (greater than 100-fold more active against CDK5 than CDK2) | 0.1 to 1 |
| COc1cc(-c2ccc(Nc3cc4nc(C(C)C5CCN(C)CC5)ccc4cn3)c(F)c2)ccn1 (stereo not drawn) [Compound 333] | < 0.01 | +++ (greater than 100-fold more active against CDK5 than CDK2) | 0.1 to 1 |
| CNC(=O)c1ccn(-c2ccc(Nc3cc4nc(S(=O)(=O)C5CCN(CC6COC6)CC5)ccc4cn3)c(F)c2)n1 [Compound 334] | < 0.01 | ++ (greater than 10-fold and less than or equal to 100-fold more active against CDK5 than CDK2) | 0.1 to 1 |
| CN1CCC(C(C)(O)c2ccc3cnc(Nc4ccc(-c5cccc(C#N)c5)cc4F)cc3n2)CC1 (stereo not drawn) [Compound 335] | < 0.01 | ++ (greater than 10-fold and less than or equal to 100-fold more active against CDK5 than CDK2) | 0.01 to 0.1 |
| COc1cccc(-c2ccc(Nc3cc4nc(S(=O)(=O)C5CCN(CC6COC6)CC5)ccc4cn3)c(F)c2)n1 [Compound 336] | < 0.01 | +++ (greater than 100-fold more active against CDK5 than CDK2) | 0.1 to 1 |
| CN1CCC(C(C)(O)c2ccc3cnc(Nc4ccc(-c5cccc(C#N)c5)cc4F)cc3n2)CC1 (stereo not drawn) [Compound 337] | 0.1 to 1 | ++ (greater than 10-fold and less than or equal to 100-fold more active against CDK5 than CDK2) | > 1 |
| CN(C)C(=O)c1ccn(-c2ccc(Nc3cc4nc(S(=O)(=O)C5CCN(CC6COC6)CC5)ccc4cn3)c(F)c2)n1 [Compound 338] | < 0.01 | +++ (greater than 100-fold more active against CDK5 than CDK2) | 0.1 to 1 |
| COc1cc(-c2ccc(Nc3cc4nc(C(C)C5CCN(C)CC5)ccc4cn3)c(F)c2)ccn1 (stereo not drawn) [Compound 339] | 0.01 to 0.1 | ++ (greater than 10-fold and less than or equal to 100-fold more active against CDK5 than CDK2) | > 1 |
| CC(C)(O)c1ccn(-c2ccc(Nc3cc4nc(S(=O)(=O)C5CCN(CC6COC6)CC5)ccc4cn3)c(F)c2)n1 [Compound 340] | 0.01 to 0.1 | ++ (greater than 10-fold and less than or equal to 100-fold more active against CDK5 than CDK2) | > 1 |
| Cc1cccc(Nc2cc3nc(C(C)(O)C4CCN(C)CC4)ccc3cn2)c1 (stereo not drawn) [Compound 341] | < 0.01 | ++ (greater than 10-fold and less than or equal to 100-fold more active against CDK5 than CDK2) | 0.01 to 0.1 |
| CN1CCC(C(C)(O)c2ccc3cnc(Nc4ccc(-c5cncnc5)cc4F)cc3n2)CC1 (stereo not drawn) [Compound 342] | < 0.01 | ++ (greater than 10-fold and less than or equal to 100-fold more active against CDK5 than CDK2) | 0.01 to 0.1 |
